From PubChem BioAssay AID248 (DTP/NCI, 2004)
Values joined by “and” are separate entries in the source; they are usually repeats but may differ in a detail not shown here. Equal values may be shown once. Inconclusive results and toxic doses are left out. Cut-off read from the data, not from the text of the source: active = T/C of 150% or more; inactive = T/C below 125%.

Tested on: L1210 leukemia ip in BDF1 mice, survival T/C
Experiment: NCI In Vivo Anticancer Drug Screen. Data for tumor model L1210 Leukemia (intraperitoneal) in B6D2F1 (BDF1) mice
Conditions: endpoint: mean survival time, higher = longer survival
How it was run: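 Value reflects the ratio of survival in compound-treated mice to survival in vehicle-treated controls, with both groups carrying the same transplanted tumor.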

[1] = dose: 100.0 mg/kg/injection, schedule: Q04DX003 (ip), vehicle: DMSO
[2] = dose: 100.0 mg/kg/injection, schedule: Q01DX001 (ip), vehicle: saline
[3] = dose: 100.0 mg/kg/injection, schedule: Q01DX001 (ip), vehicle: carboxymethylcellulose (CMC)
[4] = dose: 100.0 mg/kg/injection, schedule: Q04DX003 (ip), vehicle: saline
[5] = dose: 200.0 mg/kg/injection, schedule: Q04DX003 (ip), vehicle: saline
[6] = dose: 400.0 mg/kg/injection, schedule: Q04DX003 (ip), vehicle: saline
[7] = dose: 100.0 mg/kg/injection, schedule: Q01DX009 (ip), vehicle: saline with Tween-80
[8] = dose: 100.0 mg/kg/injection, schedule: Q04DX003 (ip), vehicle: saline with Tween-80
[9] = dose: 200.0 mg/kg/injection, schedule: Q01DX009 (ip), vehicle: saline with Tween-80
[10] = dose: 200.0 mg/kg/injection, schedule: Q04DX003 (ip), vehicle: saline with Tween-80
[11] = dose: 400.0 mg/kg/injection, schedule: Q01DX009 (ip), vehicle: saline with Tween-80
[12] = dose: 400.0 mg/kg/injection, schedule: Q04DX003 (ip), vehicle: saline with Tween-80

Measured: T/C

NC(N)=N/N=C(C(=O)O)/C(=N\N=C(N)N)C(=O)O
inactive: dose: 30.0 mg/kg/injection, schedule: Q01DX Z (oral), vehicle: carboxymethylcellulose (CMC) 101 % of control | dose: 60.0 mg/kg/injection, schedule: Q01DX Z (oral), vehicle: carboxymethylcellulose (CMC) 101 % of control | dose: 120.0 mg/kg/injection, schedule: Q01DX Z (oral), vehicle: carboxymethylcellulose (CMC) 101 % of control | dose: 240.0 mg/kg/injection, schedule: Q01DX Z (oral), vehicle: carboxymethylcellulose (CMC) 109 % of control | dose: 480.0 mg/kg/injection, schedule: Q01DX Z (oral), vehicle: carboxymethylcellulose (CMC) 106 % of control | dose: 960.0 mg/kg/injection, schedule: Q01DX Z (oral), vehicle: carboxymethylcellulose (CMC) 106 % of control

COc1ccc2c(c1OC(C)=O)-c1cc(OC(C)=O)cc3c1C(C2)N(C)CC3 (stereo not drawn)
inactive: dose: 25.0 mg/kg/injection, schedule: Q04DX003 (ip), vehicle: DMSO 93 % of control | dose: 50.0 mg/kg/injection, schedule: Q04DX003 (ip), vehicle: DMSO 95 % of control | [1] 106 % of control

CCCCCCCCN1N=C(C)CCC1=O
inactive: [2] 101 % of control | dose: 200.0 mg/kg/injection, schedule: Q01DX001 (ip), vehicle: saline 90 % of control | dose: 400.0 mg/kg/injection, schedule: Q01DX001 (ip), vehicle: saline 101 % of control

Oc1cc2ccc3c(c2cc1O)CCc1cn[nH]c1-3
inactive: dose: 100.0 mg/kg/injection, schedule: Q01DX001 (ip), vehicle: saline with Tween-80 92 % of control | dose: 400.0 mg/kg/injection, schedule: Q01DX001 (ip), vehicle: saline with Tween-80 92 % of control

CC(=O)C(C(C)=O)C(=O)c1ccccc1
inactive: dose: 222.0 mg/kg/injection, schedule: Q01DX Z (ip), vehicle: saline 100 % of control | dose: 333.0 mg/kg/injection, schedule: Q01DX Z (ip), vehicle: saline 90 % of control | dose: 500.0 mg/kg/injection, schedule: Q01DX Z (ip), vehicle: saline 103 % of control

Nc1cc(Cl)c(O)c(Cl)c1
inactive: dose: 12.5 mg/kg/injection, schedule: Q01DX015 (ip), vehicle: saline 97 % of control | dose: 25.0 mg/kg/injection, schedule: Q01DX001 (ip), vehicle: saline with Tween-80 93 % of control | dose: 25.0 mg/kg/injection, schedule: Q01DX015 (ip), vehicle: saline 100 % of control | dose: 50.0 mg/kg/injection, schedule: Q01DX001 (ip), vehicle: saline with Tween-80 92 % of control | dose: 50.0 mg/kg/injection, schedule: Q01DX015 (ip), vehicle: saline 97 % of control | [3] 93 % of control | [2] 93 % of control | dose: 100.0 mg/kg/injection, schedule: Q01DX015 (ip), vehicle: saline 91 % of control

CCN(CC)CCOC(=O)c1cc(=O)n(CCC(C)C)c2ccccc12
inactive: [4] 113 % of control | [5] 107 % of control | [6] 101 % of control

COC(OC)c1nc(N)[nH]c(=O)c1Cc1ccc(Br)cc1
inactive: dose: 100.0 mg/kg/injection, schedule: Q01DX001 (ip), vehicle: Klucel (hydroxypropylcellulose) (HPC) 105 % of control | [7] 93 % of control | [8] 106 % of control | dose: 200.0 mg/kg/injection, schedule: Q01DX001 (ip), vehicle: Klucel (hydroxypropylcellulose) (HPC) 108 % of control | [9] 102 % of control | [10] 97 % of control | dose: 400.0 mg/kg/injection, schedule: Q01DX001 (ip), vehicle: Klucel (hydroxypropylcellulose) (HPC) 108 % of control | [11] 96 % of control | [12] 97 % of control

BrCC1=CC(c2ccccc2)(c2ccccc2)c2ccccc21
inactive: [8] 89 % of control | [10] 89 % of control | [12] 87 % of control

O=C(O)c1ccc(CBr)cc1CBr
inactive: dose: 6.25 mg/kg/injection, schedule: Q01DX009 (ip), vehicle: saline with Tween-80 103 % of control | dose: 6.25 mg/kg/injection, schedule: Q04DX003 (ip), vehicle: saline with Tween-80 93 % of control | dose: 12.5 mg/kg/injection, schedule: Q01DX009 (ip), vehicle: saline with Tween-80 101 % of control | dose: 12.5 mg/kg/injection, schedule: Q04DX003 (ip), vehicle: saline with Tween-80 96 % of control | dose: 25.0 mg/kg/injection, schedule: Q01DX009 (ip), vehicle: saline with Tween-80 94 % of control | dose: 25.0 mg/kg/injection, schedule: Q04DX003 (ip), vehicle: saline with Tween-80 102 % of control

O=C(OCc1ccccc1CN1CCOCC1)c1cccc(Br)c1
inactive: dose: 25.0 mg/kg/injection, schedule: Q04DX002 (ip), vehicle: Klucel (hydroxypropylcellulose) (HPC) 93 % of control | dose: 50.0 mg/kg/injection, schedule: Q04DX002 (ip), vehicle: Klucel (hydroxypropylcellulose) (HPC) 95 % of control and 108 % of control | dose: 100.0 mg/kg/injection, schedule: Q04DX002 (ip), vehicle: Klucel (hydroxypropylcellulose) (HPC) 108 % of control | dose: 200.0 mg/kg/injection, schedule: Q04DX002 (ip), vehicle: Klucel (hydroxypropylcellulose) (HPC) 108 % of control and 92 % of control

C[N+]1(CCC[N+]2(C)CC3CCCCC3C2)CCOCC1 (stereo not drawn)
inactive: [4] 99 % of control | [5] 96 % of control | [6] 105 % of control

CCOC(=O)c1cnc(SC)nc1Oc1ccccc1
inactive: [7] 101 % of control | [9] 106 % of control | [11] 98 % of control

Nc1ccc(N)cc1
inactive: dose: 1.5 mg/kg/injection, schedule: Q01DX009 (ip), vehicle: DMSO 94 % of control | dose: 3.0 mg/kg/injection, schedule: Q01DX009 (ip), vehicle: DMSO 92 % of control | dose: 5.0 mg/kg/injection, schedule: Q01DX001 (ip), vehicle: saline 98 % of control | dose: 5.0 mg/kg/injection, schedule: Q01DX009 (ip), vehicle: saline with Tween-80 100 % of control | dose: 5.0 mg/kg/injection, schedule: Q04DX003 (ip), vehicle: saline 103 % of control | dose: 6.0 mg/kg/injection, schedule: Q01DX009 (ip), vehicle: DMSO 92 % of control | dose: 6.25 mg/kg/injection, schedule: Q01DX009 (ip), vehicle: DMSO 94 % of control | dose: 10.0 mg/kg/injection, schedule: Q01DX001 (ip), vehicle: saline 102 % of control | dose: 10.0 mg/kg/injection, schedule: Q01DX009 (ip), vehicle: saline with Tween-80 96 % of control | dose: 10.0 mg/kg/injection, schedule: Q04DX003 (ip), vehicle: saline 98 % of control | dose: 12.5 mg/kg/injection, schedule: Q01DX009 (ip), vehicle: DMSO 89 % of control | dose: 20.0 mg/kg/injection, schedule: Q01DX001 (ip), vehicle: saline 106 % of control | dose: 20.0 mg/kg/injection, schedule: Q01DX009 (ip), vehicle: saline with Tween-80 99 % of control | dose: 20.0 mg/kg/injection, schedule: Q04DX003 (ip), vehicle: saline 97 % of control | dose: 40.0 mg/kg/injection, schedule: Q01DX001 (ip), vehicle: saline 106 % of control | [1] 91 % of control | dose: 200.0 mg/kg/injection, schedule: Q04DX003 (ip), vehicle: DMSO 88 % of control

O=C1CCC(N2C(=O)C3C4c5ccccc5C(c5ccccc54)C3C2=O)C(=O)N1 (stereo not drawn)
inactive: [8] 97 % of control | [4] 97 % of control | [10] 93 % of control | [5] 89 % of control

Nc1ncnc2c1ccn2C1CCC(CO)C1 (stereo not drawn)
inactive: dose: 50.0 mg/kg/injection, schedule: Q01DX001 (ip), vehicle: other 108 % of control | dose: 100.0 mg/kg/injection, schedule: Q01DX001 (ip), vehicle: other 103 % of control | dose: 200.0 mg/kg/injection, schedule: Q01DX001 (ip), vehicle: other 101 % of control

COc1ccc(NC(=O)Nc2ccc(NC(C)=O)cc2)cc1
inactive: [7] 86 % of control | [9] 92 % of control

Oc1ccc2ccccc2c1CNc1ccccc1
inactive: dose: 100.0 mg/kg/injection, schedule: Q04DX003 (ip), vehicle: other 88 % of control | dose: 200.0 mg/kg/injection, schedule: Q04DX003 (ip), vehicle: other 94 % of control

CC(CO)(CO)N=Cc1cc([N+](=O)[O-])ccc1O
inactive: [3] 98 % of control | dose: 200.0 mg/kg/injection, schedule: Q01DX001 (ip), vehicle: carboxymethylcellulose (CMC) 98 % of control | dose: 400.0 mg/kg/injection, schedule: Q01DX001 (ip), vehicle: carboxymethylcellulose (CMC) 98 % of control

CC(C)C(CN)(CCCN1CCCC1)c1cccc2ccccc12 (stereo not drawn)
inactive: [8] 102 % of control
